Reference: patent US12509445B2, “Herbicidally active 4-cyclopropyl-6-[4-(trifluormethyl)pyrazol-1-yl)]pyrimidines” (Bayer Aktiengesellschaft, priority 2019, dated 2025)

What was measured:
Format in all cases: in vivo
[1] = tested on: harmful plants such as Alopecurus myosuroides, Amaranthus retroflexus, Avena fatua, Echinochloa crus-galli, Matricaria inodora, Pharbitis purpurea, Polygonum …; assay: Pre-emergence herbicidal action, summary in text; conditions: pre-emergence treatment
Source text: (§1) Seeds of monocotyledonous and dicotyledonous weed plants and crop plants are placed in plastic or organic plant pots and covered with soil. The compounds of the invention, formulated in the form of wettable powders (WP) or as emulsion concentrates (EC), are then applied onto the surface of the covering soil as aqueous suspension or emulsion with addition of 0.5% additive at a water application rate of 600 l/ha (converted). After the treatment, the pots are placed in a greenhouse and kept under good growth conditions for the trial plants. After about 3 weeks, the effect of the preparations is scored visually in comparison with untreated controls as percentages. For example, 100% activity=the plants have died, 0% activity=like control plants.
At the same time, some compounds according to the invention leave graminaceous crops such as barley, wheat, rye, millet/sorghum, maize, rice or sugarcane virtually undamaged when applied by the pre-emergence method, even at high active compound dosages. Some compounds are additionally also benign to dicotyledonous crops such as soya, cotton, oilseed rape or sugarbeet.

Viola tricolor (VIOTR) [2] = assay: Post-emergence herbicidal action; conditions: 320 g/ha, visual rating after about 3 weeks vs untreated controls, 100% = plants have died
Experimental: (§2) Seeds of monocotyledonous and dicotyledonous weeds and crop plants are placed in sandy loam in plastic or organic plant pots, covered with soil and cultivated in a greenhouse under controlled growth conditions. 2 to 3 weeks after sowing, the test plants are treated at the one-leaf stage. The compounds of the invention, formulated in the form of wettable powders (WP) or as emulsion concentrates (EC), are then sprayed onto the green parts of the plants as aqueous suspension or emulsion with addition of 0.5% additive at a water application rate of 600 l/ha (converted). After the test plants have been kept in the greenhouse under optimum growth conditions for about 3 weeks, the activity of the preparations is rated visually in comparison to untreated controls. For example, 100% activity=the plants have died, 0% activity=like control plants.
(§3) The abbreviations used here have the following meanings: • ABUTH Abutilon theophrasti • AMARE Amaranlhus retroflexus • CYPES Cyperus serotinus • ECHCGEchinocloa crus galli • LOLRI Lolium rigidum Gaudin • PHBPU Pharbitis purpurcum • SETVI Setaria viridis • VERPE Veronica persica • ALOMY Alopccurus myosuroides • AVEFA Avena fatua • DIGSA Digitaria sanguinalis • LOLMU Lolium multiflorum • MATIN Matricaria inodora • POLCO Polygonum convolvulus • STEME Stellaria media • VIOTR Viola tricolor

[3] = tested on: Lolium rigidum Gaudin (LOLRI); assay: Post-emergence herbicidal action; conditions: 320 g/ha, visual rating after about 3 weeks vs untreated controls, 100% = plants have died
Experimental: as §2, §3

[4] = tested on: Amaranthus retroflexus (AMARE); assay: Post-emergence herbicidal action; conditions: 320 g/ha, visual rating after about 3 weeks vs untreated controls, 100% = plants have died
Experimental: as §2, §3

[5] = tested on: Pharbitis purpurea (PHBPU); assay: Post-emergence herbicidal action; conditions: 320 g/ha, visual rating after about 3 weeks vs untreated controls, 100% = plants have died
Experimental: as §2, §3

Veronica persica (VERPE) [6] = assay: Post-emergence herbicidal action; conditions: 320 g/ha, visual rating after about 3 weeks vs untreated controls, 100% = plants have died
Experimental: as §2, §3

Setaria viridis (SETVI) [7] = assay: Post-emergence herbicidal action
Experimental: as §2, §3
(§4) The compounds according to the invention were tested by the post-emergence and pre-emergence methods under the conditions described above for comparative purposes with the structurally closest compounds known from WO 2005/089551 A1 (D1).

[8] = tested on: Alopecurus myosuroides (ALOMY); assay: Post-emergence herbicidal action
Experimental: as §2, §3, §4

[9] = tested on: Matricaria inodora (MATIN); assay: Post-emergence herbicidal action; conditions: 80 g of a.i./ha, comparative test
Experimental: as §2, §3, §4

[10] = tested on: Echinochloa crus-galli (ECHCG); assay: Post-emergence herbicidal action
Experimental: as §2, §3, §4

Setaria viridis (SETVI) [11] = assay: Pre-emergence herbicidal action
Source text: as §3, §1, §4

Viola tricolor (VIOTR) [12] = assay: Pre-emergence herbicidal action
Source text: as §3, §1, §4

[13] = tested on: Alopecurus myosuroides (ALOMY); assay: Pre-emergence herbicidal action
Source text: as §3, §1, §4

[14] = tested on: Matricaria inodora (MATIN); assay: Pre-emergence herbicidal action
Source text: as §3, §1, §4

Stellaria media (STEME) = assay: Pre-emergence herbicidal action
Source text: as §3, §1, §4

[15] = tested on: Echinochloa crus-galli (ECHCG); assay: Pre-emergence herbicidal action
Source text: as §3, §1, §4

[16] = tested on: Polygonum convolvulus (POLCO); assay: Pre-emergence herbicidal action
Source text: as §3, §1, §4

[17] = tested on: Digitaria sanguinalis (DIGSA); assay: Pre-emergence herbicidal action; conditions: 320 g/ha, visual scoring after about 3 weeks vs untreated controls, 100% = plants have died
Source text: as §3, §1

[18] = tested on: Lolium rigidum Gaudin (LOLRI); assay: Pre-emergence herbicidal action; conditions: 320 g/ha, visual scoring after about 3 weeks vs untreated controls, 100% = plants have died
Source text: as §3, §1

[19] = tested on: Amaranthus retroflexus (AMARE); assay: Pre-emergence herbicidal action; conditions: 320 g/ha, visual scoring after about 3 weeks vs untreated controls, 100% = plants have died
Source text: as §3, §1

[20] = tested on: Pharbitis purpurea (PHBPU); assay: Pre-emergence herbicidal action; conditions: 320 g/ha, visual scoring after about 3 weeks vs untreated controls, 100% = plants have died
Source text: as §3, §1

Veronica persica (VERPE) [21] = assay: Pre-emergence herbicidal action; conditions: 320 g/ha, visual scoring after about 3 weeks vs untreated controls, 100% = plants have died
Source text: as §3, §1

Avena fatua (AVEFA) = assay: Pre-emergence herbicidal action; conditions: 320 g/ha, visual scoring after about 3 weeks vs untreated controls, 100% = plants have died
Source text: as §3, §1

[22] = 80 g of a.i./ha, comparative test
[23] = 320 g/ha, visual rating after about 3 weeks vs untreated controls, 100% = plants have died
[24] = 320 g/ha, visual scoring after about 3 weeks vs untreated controls, 100% = plants have died

## FC(F)Oc1cc(Oc2nc(C3CC3)cc(-n3cc(C(F)(F)F)cn3)n2)ccn1 [Example I-003]
[1]
  herbicidal action against harmful plants (in words): good herbicidal action
Viola tricolor (VIOTR) [2]
  Post-emergence action VIOTR: 90%
[3]
  Post-emergence action LOLRI: 90%
[4]
  Post-emergence action AMARE: 90%
[5]
  Post-emergence action PHBPU: 80%
Veronica persica (VERPE) [6]
  Post-emergence action VERPE: 90%
Setaria viridis (SETVI) [7]; [22]
  Herbicidal action against SETVI: 60%
Setaria viridis (SETVI) [7]; [23]
  Post-emergence action SETVI: 80%
[8]; [22]
  Herbicidal action against ALOMY: 60%
[8]; [23]
  Post-emergence action ALOMY: 90%
[9]
  Herbicidal action against MATIN: 60%
[10]; [22]
  Herbicidal action against ECHCG: 80%
[10]; [23]
  Post-emergence action ECHCG: 90%
Setaria viridis (SETVI) [11]; [22]
  Herbicidal action against SETVI: 100%
Setaria viridis (SETVI) [11]; [24]
  Pre-emergence action SETVI: 100%
Viola tricolor (VIOTR) [12]; [22]
  Herbicidal action against VIOTR: 100%
Viola tricolor (VIOTR) [12]; [24]
  Pre-emergence action VIOTR: 100%
[13]; [22]
  Herbicidal action against ALOMY: 60%
[13]; [24]
  Pre-emergence action ALOMY: 100%
[14]; [22]
  Herbicidal action against MATIN: 90%
[14]; [24]
  Pre-emergence action MATIN: 90%
Stellaria media (STEME); [22]
  Herbicidal action against STEME: 90%
Stellaria media (STEME); [24]
  Pre-emergence action STEME: 100%
[15]; [22]
  Herbicidal action against ECHCG: 30%
[15]; [24]
  Pre-emergence action ECHCG: 90%
[16]; [22]
  Herbicidal action against POLCO: 20%
[16]; [24]
  Pre-emergence action POLCO: 90%
[17]
  Pre-emergence action DIGSA: 100%
[18]
  Pre-emergence action LOLRI: 100%
[19]
  Pre-emergence action AMARE: 100%
[20]
  Pre-emergence action PHBPU: 100%
Veronica persica (VERPE) [21]
  Pre-emergence action VERPE: 100%
Avena fatua (AVEFA)
  Pre-emergence action AVEFA: 90%
